Laboratory results from patent US9029589B2, “Phenyl alkyl carbamate derivative compound and pharmaceutical composition containing the same” (Bio-Pharm Solutions Co., Ltd., priority 2011, dated 2015).

What was measured:
Type in all cases: in vivo
Conditions in all cases: intraperitoneal, at time of maximum effect, 50% of muscle relaxation activity vs vehicle only (100%)
male mice (ICR) [1] = assay: Muscle relaxation activity by grip strength (forelimbs)
Description: (§1) For testing, male mice (ICR) were purchased from ORIENT BIO INC. (Korea), divided into several groups with 6 mice in each group, and were adapted for 4-5 days. The mice having the weight ranging from 19 g to 26 g were employed for the test. The pharmacological effect of the test compounds on muscle relaxation was evaluated by Rotarod test, grip strength test, and muscular force (wire hang) test. All mice were adapted to the test environment at one hour before starting the tests. The pharmacological effects of all the test compounds were evaluated by administration through peritoneal cavity of the mice (10 ul/g, bw).
A grip strength test using the test animals' forelimbs was performed using an instrument equipped with triangle ring and designed so as to easily grip with the forelimbs of experimental animals, manufactured from Ugo Basile Inc. (Ugo Basile, Model 47106, Italy). The test was conducted before and after administration of the compounds to evaluate the effects thereof. […] The mouse was made to grip the rod with its forelimbs, and its tail was pulled, where the force at which the mouse detached from the rod was recorded. The instrument indicated the force in grams. All of the mice were given 3 opportunities for test, and the 3 highest values among the test opportunities were selected and the mean value was used as the test result. This experimentation was conducted according to the method described in the reference, ‘Nevins et al. (1993) Quantitative grip strength assessment as a means of evaluating muscle relaxation in mice. Psychopharmacol. 110: 92-96’.
(§2) The results of muscle relaxation activity of the phenyl alkyl carbamate derivative compounds measured in above Experimental Examples 1 to 3 are shown in following Table 3.

male mice (ICR) [2] = assay: Muscle relaxation activity by wire hang
Description: as §1
This experimentation was conducted using a metal wire of 30 cm in length, which was suspended between two pillars at a height of about 40 cm from the bottom covered with a soft pad. […] Each mouse was made to grip the wire using two forelimbs, and the elapse time before the mouse fell off from the wire to the pad on the bottom was recorded in seconds. Each mouse was given 5 opportunities for this test at an interval of 2 minutes period. The highest 3 records among the test opportunities were selected and the mean value was used as the test result. This experimentation was conducted according to the method described in the reference, ‘Jacqueline N. Crawley (1999) Behavioral phenotyping of transgenic and knockout mice: experimental design and evaluation of general health, sensory functions, motor abilities, and specific behavioral tests. Brain Res. 835: 18-26’.
as §2

male mice (ICR) [3] = assay: Muscle relaxation activity by residence time on a rotarod rotating at a fixed speed (15 r.p.m.)
Description: as §1
All the mice to be tested were preliminarily trained for 5 minutes on a rod rotating at the rate of 15 revolutions per a minute. The mice that could not remain on the rod without falling off therefrom for a minimum of 2 minutes were excluded from this testing. After the training, all the mice were allowed to rest for 45-60 minutes. Before the administration of the test compounds, the mice were subjected to a further training for one minute on the rod rotating under the same condition, where the mice falling off from the rod were excluded from this experimentation. […] In case a mouse stays on the rod until the test is finished, the time was recorded as 10 minutes. As test time for evaluation, a maximum of 10 minutes was applied. This experimentation was conducted according to the method described in the reference, ‘Yasuda et al. (2005) Antipyretic, analgesic and muscle relaxant activities of Pueraria isoflavonoids and their metabolites from Pueraria lobata Ohwi—a traditional Chinese drug. Biol. Pharm. Bull. 28: 1224-1228’.
as §2

Row | SMILES | MR test (ED50) II = Grip strength (male mice (ICR) [1]) | MR test (ED50) III = Wire hang (male mice (ICR) [2]) | MR test (ED50) I = Fixed 15 r.p.m. Rotarod (male mice (ICR) [3])
1 | COCO[C@@H](c1ccccc1Cl)[C@H](C)OC(N)=O [Example 1, 1-(2-chlorophenyl)-(S)-1-methoxymethoxypropyl-(S)-2-carbamate] | 115.2 mg/kg, bw | 37.0 mg/kg, bw | 55.0 mg/kg, bw
2 | COCO[C@H](c1ccccc1I)[C@@H](C)OC(N)=O [Example 91, 1-(2-iodophenyl)-(R)-1-methoxymethoxypropyl-(R)-2-carbamate] | – | 24.4 mg/kg, bw | 30.1 mg/kg, bw
3 | CO[C@@H](c1ccccc1Cl)[C@H](C)OC(N)=O [Example 124, 1-(2-chlorophenyl)-(S)-1-methoxypropyl-(S)-2-carbamate] | 66.4 mg/kg, bw | 34.8 mg/kg, bw | 35.9 mg/kg, bw
4 | CO[C@@H](c1ccccc1F)[C@H](C)OC(N)=O [Example 135, 1-(2-fluorophenyl)-(S)-1-methoxypropyl-(S)-2-carbamate] | 145.6 mg/kg, bw | 26.2 mg/kg, bw | 60.0 mg/kg, bw
5 | CO[C@@H](c1ccccc1I)[C@H](C)OC(N)=O [Example 143, 1-(2-iodophenyl)-(S)-1-methoxypropyl-(S)-2-carbamate] | 61.0 mg/kg, bw | 33.5 mg/kg, bw | 13.0 mg/kg, bw
6 | C[C@H](OC(N)=O)[C@@H](OC(N)=O)c1ccccc1Cl [Example 247, 1-(2-chlorophenyl)-(S)-1-carbamoyloxypropyl-(S)-2-carbamate] | 264.3 mg/kg, bw | – | –
7 | C[C@@H](OC(N)=O)[C@H](OC(N)=O)c1ccccc1Cl [Example 250, 1-(2-chlorophenyl)-(R)-2-carbamoyloxypropyl-(R)-1-carbamate] | 225.6 mg/kg, bw | – | –
